Assay results taken from PMC10685196 (Heliyon, 2023).
Where two headings read alike, the source gives them in different places.

How the values were obtained:
Br2 β-glucosidase [1] = test: glucose release, glucose oxidase/ABTS assay, Michaelis-Menten fit; type: biochemical, uncultured bacterium; conditions: 0.1 M sodium phosphate, pH 6.5, 40 °C, 10 min
[2] = target: Br2 β-glucosidase (glycoside hydrolase family 1), wild type (bovine rumen metagenome (microbe not identified)); test: SEC
Br2 β-glucosidase [3] = conditions: 0.1 M sodium phosphate, pH 6.5, 40 °C, 10 min
Br2 β-glucosidase [4] = conditions: read-out: pNP-Glc; 0.1 M sodium phosphate, pH 6.5, 40 °C, 10 min
Br2 β-glucosidase [5] = test: p-nitrophenol release, absorbance at […] nm, Michaelis-Menten fit; type: biochemical, uncultured bacterium; conditions: read-out: pNP-Glc; 0.1 M sodium phosphate, pH 6.5, 40 °C, 10 min
Br2 β-glucosidase [6] = conditions: read-out: pNP-Glc; 0.1 M sodium phosphate, pH 6.5, 40 °C, 10 min; cited from earlier work

Q: For `OC[C@H]1O[C@@H](OC[C@H]2OC(O)[C@H](O)[C@@H](O)[C@@H]2O)[C@H](O)[C@@H](O)[C@@H]1O` (stereo partly shown) [Gentiobiose], which Km (Br2 β-glucosidase [1]; read-out: Gentiobiose) is on record?
A: 35.8 ± 10.9 mM

Q: With “Br2 β-glucosidase (glycoside hydrolase family 1), wild type (enzyme)” as the molecule, how does the stoichiometry N [2] read?
A: 4

Q: For `OC[C@H]1O[C@@H](O[C@H]2[C@H](O)[C@@H](O)[C@H](O[C@H]3[C@H](O)[C@@H](O)[C@H](O[C@H]4[C@H](O)[C@@H](O)C(O)O[C@@H]4CO)O[C@@H]3CO)O[C@@H]2CO)[C@H](O)[C@@H](O)[C@@H]1O` (stereo partly shown) [Cellotetraose], which Km (Br2 β-glucosidase [3]; read-out: Gentiobiose) is on record?
A: 1.83 ± 0.09 mM

Q: What about the Km (Br2 β-glucosidase [1]; read-out: Gentiobiose) of the same molecule?
A: 3.87 ± 0.16 mM

Q: Which Km (Br2 β-glucosidase [1]; read-out: Sophorose) does the source give for `OC[C@H]1O[C@@H](O[C@H]2C(O)O[C@H](CO)[C@@H](O)[C@@H]2O)[C@H](O)[C@@H](O)[C@@H]1O` (stereo partly shown) [Sophorose] here?
A: 2.68 ± 0.16 mM

Q: With `OC[C@H]1O[C@@H](O[C@@H]2[C@@H](O)[C@H](O[C@H]3[C@H](O)[C@@H](CO)OC(O)[C@@H]3O)O[C@H](CO)[C@H]2O)[C@H](O)[C@@H](O)[C@@H]1O` (stereo partly shown) [Laminaritriose] as the molecule, how does the Km (Br2 β-glucosidase [1]; read-out: Sophorose) read?
A: 0.9 ± 0.09 mM

Q: Which Km (Br2 β-glucosidase [4]) does the source give for `OC[C@H]1O[C@@H](O[C@H]2[C@H](O)[C@@H](CO)OC(O)[C@@H]2O)[C@H](O)[C@@H](O)[C@@H]1O` (stereo partly shown) [Laminaribiose] here?
A: 11.7 ± 4.2 mM

Q: What about the Km (Br2 β-glucosidase [1]; read-out: pNP-Glc) of the same molecule?
A: 1.29 ± 0.08 mM

Q: With `O=[N+]([O-])c1ccc(O[C@@H]2O[C@H](CO)[C@@H](O)[C@H](O)[C@H]2O)cc1` [pNP-Glc, p-nitrophenyl β-D-glucopyranoside] as the molecule, how does the Km (Br2 β-glucosidase [5]) read?
A: 0.55 ± 0.04 mM

Q: For `OC[C@H]1O[C@@H](O[C@H]2[C@H](O)[C@@H](O)C(O)O[C@@H]2CO)[C@H](O)[C@@H](O)[C@@H]1O` (stereo partly shown) [Cellobiose], which Km (Br2 β-glucosidase [6]) is on record?
A: 24.3 ± 9.8 mM

Q: Which Km (Br2 β-glucosidase [1]; read-out: Gentiobiose) does the source give for `OC[C@H]1O[C@@H](O[C@@H]2[C@@H](O)[C@H](O[C@@H]3[C@@H](O)[C@H](O[C@H]4[C@H](O)[C@@H](CO)OC(O)[C@@H]4O)O[C@H](CO)[C@H]3O)O[C@H](CO)[C@H]2O)[C@H](O)[C@@H](O)[C@@H]1O` (stereo partly shown) [Laminaritetraose] here?
A: 2.56 ± 0.41 mM

Q: What does the source list for `OC[C@H]1O[C@@H](O[C@H]2[C@H](O)[C@@H](O)[C@H](O[C@H]3[C@H](O)[C@@H](O)C(O)O[C@@H]3CO)O[C@@H]2CO)[C@H](O)[C@@H](O)[C@@H]1O` (stereo partly shown) [Cellotriose]?
A: Km (Br2 β-glucosidase [3]; read-out: Sophorose): 3.57 ± 0.33 mM; Km (Br2 β-glucosidase [1]; read-out: Sophorose): 6.73 ± 0.32 mM
